Experimental data taken from article PMC10023787, “Trio-pharmacophore DNA-encoded chemical library for simultaneous selection of fragments and linkers” (Nature Communications, 2023).
Like-named read-outs stand apart in the source and are kept apart here.

What was measured:
MMP-2 = target: T1, MMP-2 (Homo sapiens, UniProt P08253); assay: MMP-2 inhibition assay (fluorogenic peptide substrate); type: biochemical
T1 construct: purchased Sino Biological 10082-HNAH
T1 sequence (P08253 110-660): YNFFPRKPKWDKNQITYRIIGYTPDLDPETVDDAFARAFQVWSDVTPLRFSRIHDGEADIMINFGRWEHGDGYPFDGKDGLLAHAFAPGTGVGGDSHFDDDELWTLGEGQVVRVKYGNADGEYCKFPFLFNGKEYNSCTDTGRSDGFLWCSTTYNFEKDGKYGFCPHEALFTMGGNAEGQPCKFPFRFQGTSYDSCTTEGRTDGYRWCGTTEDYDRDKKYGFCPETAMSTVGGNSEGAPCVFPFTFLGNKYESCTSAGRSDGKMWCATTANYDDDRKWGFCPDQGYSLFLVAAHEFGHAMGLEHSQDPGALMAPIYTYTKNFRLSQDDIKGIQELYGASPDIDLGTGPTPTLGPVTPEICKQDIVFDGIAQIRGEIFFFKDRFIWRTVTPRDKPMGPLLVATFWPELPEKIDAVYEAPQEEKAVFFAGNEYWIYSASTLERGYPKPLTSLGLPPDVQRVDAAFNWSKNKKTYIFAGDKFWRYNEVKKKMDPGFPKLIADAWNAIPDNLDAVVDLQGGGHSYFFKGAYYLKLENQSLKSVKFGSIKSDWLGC
Method in brief: (§1)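 Human proMMP-2 and proMMP-9 were activated with 1 mM APMA for 2 h at 37 °C, then used at 6.5 nM (MMP-2) or 10 nM (MMP-9) final in Tris/NaCl/CaCl2/Brij 35 buffer, pH 7.5. After 30 min preincubation with compound at RT, 25 μM FRET peptide substrate was added and fluorescence (ex 280/em 360 nm) followed for 30 min. IC50 came from logistic fits of Vmax.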

MMP-9 = target: T2, MMP-9 (Homo sapiens, UniProt P14780); assay: MMP-9 inhibition assay (fluorogenic peptide substrate); type: biochemical
T2 construct: purchased Sino Biological 10327-HNAH
T2 sequence (P14780 107-707 limits assumed): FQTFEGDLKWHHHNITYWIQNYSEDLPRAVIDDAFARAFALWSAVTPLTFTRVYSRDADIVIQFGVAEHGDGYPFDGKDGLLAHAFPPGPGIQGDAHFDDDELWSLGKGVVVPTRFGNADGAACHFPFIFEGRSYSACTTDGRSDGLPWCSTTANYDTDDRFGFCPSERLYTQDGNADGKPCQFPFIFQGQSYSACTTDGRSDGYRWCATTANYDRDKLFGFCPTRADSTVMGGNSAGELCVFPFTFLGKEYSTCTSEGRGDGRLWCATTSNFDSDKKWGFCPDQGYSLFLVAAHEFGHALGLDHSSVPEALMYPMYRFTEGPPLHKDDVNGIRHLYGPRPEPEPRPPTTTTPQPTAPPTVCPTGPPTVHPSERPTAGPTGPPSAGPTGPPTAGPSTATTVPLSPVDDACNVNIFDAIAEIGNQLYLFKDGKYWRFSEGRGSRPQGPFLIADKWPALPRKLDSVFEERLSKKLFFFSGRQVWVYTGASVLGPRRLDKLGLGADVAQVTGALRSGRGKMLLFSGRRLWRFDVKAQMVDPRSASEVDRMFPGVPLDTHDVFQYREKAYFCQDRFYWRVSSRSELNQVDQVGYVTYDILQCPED
Method in brief: as §1

remaining activity at 0.0156098 µM (MMP-2; Figure 5a, fragment concentration 0.0156098 µM, read-out: Normalized activity (Mean)): 101%
remaining activity at 0.0780488 µM (MMP-2; Figure 5a, fragment concentration 0.0780488 µM, read-out: Normalized activity (Mean)): 93.4%
remaining activity at 0.390244 µM (MMP-2; Figure 5a, fragment concentration 0.390244 µM, read-out: Normalized activity (Mean)): 108%
remaining activity at 1.95122 µM (MMP-2; Figure 5a, fragment concentration 1.95122 µM, read-out: Normalized activity (Mean)): 92.2%
remaining activity at 9.7561 µM (MMP-2; Figure 5a, fragment concentration 9.7561 µM, read-out: Normalized activity (Mean)): 105%
remaining activity at 48.7805 µM (MMP-2; Figure 5a, fragment concentration 48.7805 µM, read-out: Normalized activity (Mean)): 96.9%
remaining activity at 243.902 µM (MMP-2; Figure 5a, fragment concentration 243.902 µM, read-out: Normalized activity (Mean)): 87.8%
remaining activity at 1219.51 µM (MMP-2; Figure 5a, fragment concentration 1219.51 µM, read-out: Normalized activity (Mean)): 57.1%
remaining activity at 0.0156 µM (MMP-2; MMP-2, concentration 0.0156 µM, read-out: Mean (MMP-2, Supplementary fig 16)): 101%
remaining activity at 0.08 µM (MMP-2; MMP-2, concentration 0.08 µM, read-out: Mean (MMP-2, Supplementary fig 16)): 93.5%
remaining activity at 0.39 µM (MMP-2; MMP-2, concentration 0.39 µM, read-out: Mean (MMP-2, Supplementary fig 16)): 108%
remaining activity at 1.95 µM (MMP-2; MMP-2, concentration 1.95 µM, read-out: Mean (MMP-2, Supplementary fig 16)): 92.2%
remaining activity at 9.76 µM (MMP-2; MMP-2, concentration 9.76 µM, read-out: Mean (MMP-2, Supplementary fig 16)): 105%
remaining activity at 48.78 µM (MMP-2; MMP-2, concentration 48.78 µM, read-out: Mean (MMP-2, Supplementary fig 16)): 96.9%
remaining activity at 243.9 µM (MMP-2; MMP-2, concentration 243.90 µM, read-out: Mean (MMP-2, Supplementary fig 16)): 87.8%
remaining activity at 0.0156 µM (MMP-2; MMP-2, concentration 0.0156 µM, read-out: Mean (MMP-2 dose-response, Supplementary fig 15)): 101%
remaining activity at 0.0156 µM (MMP-2; MMP-2, concentration 0.0156 µM, read-out: Mean (dose-response, Supplementary fig 17)): 101%
remaining activity at 0.08 µM (MMP-2; MMP-2, concentration 0.08 µM, read-out: Mean (MMP-2 dose-response, Supplementary fig 15)): 93.5%
remaining activity at 0.08 µM (MMP-2; MMP-2, concentration 0.08 µM, read-out: Mean (dose-response, Supplementary fig 17)): 93.5%
remaining activity at 0.39 µM (MMP-2; MMP-2, concentration 0.39 µM, read-out: Mean (MMP-2 dose-response, Supplementary fig 15)): 108%
remaining activity at 0.39 µM (MMP-2; MMP-2, concentration 0.39 µM, read-out: Mean (dose-response, Supplementary fig 17)): 108%
remaining activity at 1.95 µM (MMP-2; MMP-2, concentration 1.95 µM, read-out: Mean (MMP-2 dose-response, Supplementary fig 15)): 92.2%
remaining activity at 1.95 µM (MMP-2; MMP-2, concentration 1.95 µM, read-out: Mean (dose-response, Supplementary fig 17)): 92.2%
remaining activity at 9.75 µM (MMP-2; MMP-2, concentration 9.75 µM, read-out: Mean (MMP-2 dose-response, Supplementary fig 15)): 105%
remaining activity at 9.76 µM (MMP-2; MMP-2, concentration 9.76 µM, read-out: Mean (dose-response, Supplementary fig 17)): 105%
remaining activity at 48.76 µM (MMP-2; MMP-2, concentration 48.76 µM, read-out: Mean (MMP-2 dose-response, Supplementary fig 15)): 96.9%
remaining activity at 48.78 µM (MMP-2; MMP-2, concentration 48.78 µM, read-out: Mean (dose-response, Supplementary fig 17)): 96.9%
remaining activity at 243.8 µM (MMP-2; MMP-2, concentration 243.80 µM, read-out: Mean (MMP-2 dose-response, Supplementary fig 15)): 87.8%
remaining activity at 243.9 µM (MMP-2; MMP-2, concentration 243.90 µM, read-out: Mean (dose-response, Supplementary fig 17)): 87.8%
remaining activity at 1219.51 µM (MMP-2; MMP-2, concentration 1219.51 µM, read-out: Mean (dose-response, Supplementary fig 17)): 57.1%
remaining activity at 0.078016 µM (MMP-9; Figure 5b, fragment concentration 0.078016 µM, read-out: Normalized activity (Mean)): 99.6%
remaining activity at 0.39008 µM (MMP-9; Figure 5b, fragment concentration 0.39008 µM, read-out: Normalized activity (Mean)): 103%
remaining activity at 1.9504 µM (MMP-9; Figure 5b, fragment concentration 1.9504 µM, read-out: Normalized activity (Mean)): 88%
remaining activity at 9.752 µM (MMP-9; Figure 5b, fragment concentration 9.752 µM, read-out: Normalized activity (Mean)): 89.2%
remaining activity at 48.76 µM (MMP-9; Figure 5b, fragment concentration 48.76 µM, read-out: Normalized activity (Mean)): 88.6%
remaining activity at 243.8 µM (MMP-9; Figure 5b, fragment concentration 243.8 µM, read-out: Normalized activity (Mean)): 78.5%
remaining activity at 1219 µM (MMP-9; Figure 5b, fragment concentration 1219 µM, read-out: Normalized activity (Mean)): 32.5%
remaining activity at 0.08 µM (MMP-9; MMP-9, concentration 0.08 µM, read-out: Mean (MMP-9, Supplementary fig 16)): 99.6%
remaining activity at 0.39 µM (MMP-9; MMP-9, concentration 0.39 µM, read-out: Mean (MMP-9, Supplementary fig 16)): 103%
remaining activity at 1.95 µM (MMP-9; MMP-9, concentration 1.95 µM, read-out: Mean (MMP-9, Supplementary fig 16)): 88%
remaining activity at 9.75 µM (MMP-9; MMP-9, concentration 9.75 µM, read-out: Mean (MMP-9, Supplementary fig 16)): 89.2%
remaining activity at 48.76 µM (MMP-9; MMP-9, concentration 48.76 µM, read-out: Mean (MMP-9, Supplementary fig 16)): 88.6%
remaining activity at 243.8 µM (MMP-9; MMP-9, concentration 243.80 µM, read-out: Mean (MMP-9, Supplementary fig 16)): 78.5%
remaining activity at 1219 µM (MMP-9; MMP-9, concentration 1219.00 µM, read-out: Mean (MMP-9, Supplementary fig 16)): 32.5%
remaining activity at 0.08 µM (MMP-9; MMP-9, concentration 0.08 µM, read-out: Mean (MMP-9 dose-response, Supplementary fig 15)): 99.6%
remaining activity at 0.08 µM (MMP-9; MMP-9, concentration 0.08 µM, read-out: Mean (dose-response, Supplementary fig 17)): 99.6%
remaining activity at 0.39 µM (MMP-9; MMP-9, concentration 0.39 µM, read-out: Mean (MMP-9 dose-response, Supplementary fig 15)): 103%
remaining activity at 0.39 µM (MMP-9; MMP-9, concentration 0.39 µM, read-out: Mean (dose-response, Supplementary fig 17)): 103%
remaining activity at 1.95 µM (MMP-9; MMP-9, concentration 1.95 µM, read-out: Mean (MMP-9 dose-response, Supplementary fig 15)): 88%
remaining activity at 1.95 µM (MMP-9; MMP-9, concentration 1.95 µM, read-out: Mean (dose-response, Supplementary fig 17)): 88%
remaining activity at 9.75 µM (MMP-9; MMP-9, concentration 9.75 µM, read-out: Mean (MMP-9 dose-response, Supplementary fig 15)): 89.2%
remaining activity at 9.75 µM (MMP-9; MMP-9, concentration 9.75 µM, read-out: Mean (dose-response, Supplementary fig 17)): 89.2%
remaining activity at 48.76 µM (MMP-9; MMP-9, concentration 48.76 µM, read-out: Mean (MMP-9 dose-response, Supplementary fig 15)): 88.6%
remaining activity at 48.76 µM (MMP-9; MMP-9, concentration 48.76 µM, read-out: Mean (dose-response, Supplementary fig 17)): 88.6%
remaining activity at 243.8 µM (MMP-9; MMP-9, concentration 243.80 µM, read-out: Mean (MMP-9 dose-response, Supplementary fig 15)): 78.5%
remaining activity at 243.8 µM (MMP-9; MMP-9, concentration 243.80 µM, read-out: Mean (dose-response, Supplementary fig 17)): 78.5%
remaining activity at 1219 µM (MMP-9; MMP-9, concentration 1219.00 µM, read-out: Mean (MMP-9 dose-response, Supplementary fig 15)): 32.5%
remaining activity at 1219 µM (MMP-9; MMP-9, concentration 1219.00 µM, read-out: Mean (dose-response, Supplementary fig 17)): 32.5%
inhibitory effect (MMP-9; in words): high µM
IC50 (MMP-9; mean ± SE, n.d: not detected, Fig. 5e prints no unit, µM, read-out: IC50): 784 ± 115 µM
Compound: NCc1c[nH]nn1 [Compound 787]
